These results are taken from ChEMBL document CHEMBL4742385 (2019).

One test has as its system RPMI-8226. The test can be described thus: Antiproliferative activity against human RPMI-8226 assessed as inhibition of cell growth at 1 uM after 8 days measured after Celltiter-Glo assay relative to control. It counts as functional. As to conditions: Homo sapiens, RPMI-8226, 192 h, time 8 day. On the technique in general: Cellular ATP, detected with luciferase, serves as a proxy for viable cell number.

Test [1] concerns the target Cyclin-C/Cyclin-dependent kinase 19 (Homo sapiens) (UniProt Q9BWU1+P24863). The test is described as follows: Inhibition of humanGST-tagged CDK19/Cyc C expressed in Sf21 cells at 1 uM measured after 1 hr by fluorescence plate reader relative to control.
A further test has as its system SW480. The test can be described thus: Antitumor activity against human SW480 cells xenografted in BALB/c nude mouse assessed as inhibition of tumor growth at 50 mg/kg, po administered once daily measured after 14 days relative to control. The format is functional. As to conditions: time 14 day.
Test [2] concerns the target CDK8/Cyclin C (Homo sapiens) (UniProt P49336+P24863). The test can be described thus: Inhibition of human CDK8/Cyc C expressed in Sf21 cells at 1 uM measured after 1 hr by fluorescence plate reader relative to control.

In the case of `O=C(/C=C/c1cncc(F)c1-c1cnn(C2CC2)c1)Nc1ccc2c(c1)CN(CC(F)(F)F)C2`, the inhibition – broadly, the change of the read-out against control, counted positive when it falls – at 1 µM in the test with RPMI-8226 was 58%. The inhibition in test [1] was 100%; in test [2] it was 104%. For the same molecule, the T/C (commonly the result in the treated group divided by that in the control group, in per cent) in the test on SW480 is listed as 29%.

As to `O=C(/C=C/c1cncc(F)c1-c1cnn(C2CC2)c1)Nc1ccc(CN2CCOCC2)cc1F`, in the test on RPMI-8226, the inhibition at 1 µM turned out to be 64%. The inhibition was 96% in test [1] and 101% in test [2]. Besides, the T/C with SW480 is recorded as 36%.

Regarding `O=C(/C=C/c1cnccc1-c1cnn(C2CC2)c1)Nc1ccc(CN2CCOCC2)cc1`, in the test with RPMI-8226, the inhibition at 1 µM was 53%. For the same molecule, the inhibition in test [1] was determined as 102%; in test [2], 92%. Besides, in the test with SW480, the T/C was 37%.

Regarding `O=C(/C=C/c1cnccc1-c1cnn(C2CC2)c1)Nc1ccc(CN2CC(F)(F)C2)cc1`, in the test on RPMI-8226, the inhibition at 1 µM stood at 58%. Moreover, the T/C with SW480 is 51%.

For `Cn1cc(-c2c(F)cncc2/C=C/C(=O)Nc2ccc(CN3CC(F)(F)C3)cc2)cn1`, the inhibition at 1 µM with RPMI-8226 was found to be 65%. In addition, the results for the inhibition in test [1] and in test [2] were 102% and 103%, respectively. Moreover, the T/C in the test with SW480 is recorded as 36%.

For `COc1ncc(-c2ccncc2/C=C/C(=O)Nc2ccc(CN3CCOCC3)cc2F)s1`, the inhibition at 1 µM in the test with RPMI-8226 was determined as 63%. In addition, the inhibition in test [1] was 96%; in test [2] it was 99%.

Turning to `Cn1cnc2ccc(-c3ccncc3/C=C/C(=O)Nc3ccc(CN4CCOCC4)cc3)cc21`, the inhibition at 1 µM in the test with RPMI-8226 was 65%. Also, the inhibition in test [1] and in test [2] was 102% in each case.

Consider `O=C(/C=C/c1cnccc1-c1cnn(C2CC2)c1)Nc1ccc2c(c1)CN(C(=O)C(F)(F)F)CC2`, for which, in the test on RPMI-8226, the inhibition at 1 µM is 57%. The inhibition in test [1] and in test [2] was 98% in each case.

For the molecule `Cc1nn(C)cc1-c1ccncc1/C=C/C(=O)Nc1ccc(CCc2nnco2)cc1`, the inhibition at 1 µM with RPMI-8226 came out at 54%. Further, the inhibition stood at 98% in test [1] and 100% in test [2].

On to `Cn1cc(-c2ccncc2/C=C/C(=O)Nc2ccc3c(c2)CCO3)cn1`, for which the inhibition at 1 µM in the test on RPMI-8226 was 55%. In addition, the inhibition in test [1] was determined as 95%; in test [2], 96%.

Turning to `CN(C)CCc1ccc(NC(=O)/C=C/c2cnccc2-c2cnn(C)c2)cc1`, in the test on RPMI-8226, the inhibition at 1 µM stood at 66%. In addition, the inhibition in test [1] and in test [2] was 98% each time.

As to `Cn1cc(-c2ccc(NC(=O)/C=C/c3cnccc3-c3cnn(C4CC4)c3)cc2)cn1`, the inhibition at 1 µM in the test with RPMI-8226 worked out at 58%. The inhibition is 97% in test [1] and 92% in test [2].

Turning to `O=C(/C=C/c1cnccc1-c1cnn(C2CC2)c1)Nc1ccc(C2CC2)cc1`, the inhibition at 1 µM in the test with RPMI-8226 was 53%. For the same molecule, the inhibition was found to be 89% in test [1] and 95% in test [2].

Regarding `Cn1cc(-c2ccncc2/C=C/C(=O)Nc2ccc(CN3CCN4CCCC4C3)cc2)cn1` (stereo unspecified), the inhibition at 1 µM in the test with RPMI-8226 was determined as 59%. In addition, the inhibition is 74% in test [1] and 100% in test [2].

In the case of `Cc1ncc(-c2ccncc2/C=C/C(=O)Nc2ccc(CN3CCOCC3)cc2)s1`, the inhibition at 1 µM in the test on RPMI-8226 is 54%. The inhibition in test [1] and in test [2] was 95% each time.

Turning to `Cn1cc(-c2ccncc2/C=C/C(=O)Nc2ccc3c(c2)CN(CC(F)(F)F)C3)cn1`, the inhibition at 1 µM in the test with RPMI-8226 worked out at 64%. In addition, the inhibition turned out to be 102% in test [1] and 98% in test [2]. For the same molecule, the T/C with SW480 is 31%.

As for `O=C(/C=C/c1cnccc1-c1cnn(C2CC2)c1)Nc1ccc(CN2CCOCC2)cc1F`, the inhibition at 1 µM with RPMI-8226 is 53%. Moreover, the inhibition in test [1] and in test [2] was 99% in each case. Further, the T/C with SW480 came to 36%.

With `CN1CCc2ccc(NC(=O)/C=C/c3cnccc3-c3cnn(C)c3)cc2C1`, in the test with RPMI-8226, the inhibition at 1 µM stood at 52%. The inhibition stood at 98% in test [1] and 100% in test [2].

For `Cn1cc(-c2ccncc2/C=C/C(=O)Nc2ccc3c(c2)CN(CC(F)(F)F)CC3)cn1`, the inhibition at 1 µM with RPMI-8226 worked out at 59%. Moreover, the inhibition turned out to be 100% in test [1] and 102% in test [2]. Also, in the test with SW480, the T/C is recorded as 43%.

With `Cn1cc(-c2ccncc2/C=C/C(=O)Nc2ccc3c(c2)CCN3)cn1`, the inhibition at 1 µM in the test with RPMI-8226 turned out to be 58%. Further, the values for the inhibition in test [1] and in test [2] were 96% and 97%, respectively.
